3 compounds from ChEMBL document CHEMBL3872274, “Synthesis and immunological evaluation of a low molecular weight saccharide with TLR-4 agonist activity” (Bioorg Med Chem, 2017) can be followed below.

The target in series [1] is T1, Toll-like receptor 4 (Mus musculus) (UniProt Q9QUK6).
T1 sequence (whole entry): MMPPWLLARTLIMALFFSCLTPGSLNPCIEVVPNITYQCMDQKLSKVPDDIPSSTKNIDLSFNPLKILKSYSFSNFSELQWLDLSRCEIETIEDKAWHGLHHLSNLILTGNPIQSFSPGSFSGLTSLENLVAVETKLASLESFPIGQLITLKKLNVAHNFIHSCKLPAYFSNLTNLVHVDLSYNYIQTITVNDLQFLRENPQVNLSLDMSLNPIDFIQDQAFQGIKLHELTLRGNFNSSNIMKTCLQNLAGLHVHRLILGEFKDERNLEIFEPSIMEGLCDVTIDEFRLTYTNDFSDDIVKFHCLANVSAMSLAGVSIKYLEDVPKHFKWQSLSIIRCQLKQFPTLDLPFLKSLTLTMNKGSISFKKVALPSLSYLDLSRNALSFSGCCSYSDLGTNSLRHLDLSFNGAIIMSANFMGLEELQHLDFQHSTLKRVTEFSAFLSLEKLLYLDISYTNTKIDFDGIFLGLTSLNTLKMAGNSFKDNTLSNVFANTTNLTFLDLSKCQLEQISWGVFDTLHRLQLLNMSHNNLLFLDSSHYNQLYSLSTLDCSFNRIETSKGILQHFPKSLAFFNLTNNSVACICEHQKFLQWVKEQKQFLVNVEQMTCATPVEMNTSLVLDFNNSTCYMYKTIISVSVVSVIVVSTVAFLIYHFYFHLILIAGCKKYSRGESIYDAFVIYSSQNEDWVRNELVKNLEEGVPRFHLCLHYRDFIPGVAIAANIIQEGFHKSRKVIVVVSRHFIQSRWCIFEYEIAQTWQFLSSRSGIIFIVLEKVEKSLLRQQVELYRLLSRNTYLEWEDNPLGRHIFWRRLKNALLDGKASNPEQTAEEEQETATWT
Put plainly: Agonist activity at TLR-4 in C57BL/6 mouse peritoneal exudate macrophages assessed as increase in IL-6 production at 1 to 5 ug/ml at 24 hrs post dose by ELISA relative to (Cyclohexyl-2-phthalimido-3,4,6-tri-O-acetyl-beta-D-glucopyranosyl)-2-O-acetyl-3-O-benzoyl-4,6-O-pyruvate-beta-D-galactopyranose.

In series [2] the target is T1, Toll-like receptor 4 (Mus musculus). In words: Agonist activity at TLR-4 in mouse RAW264.7 cells assessed as increase in TNF-alpha production at 1 to 5 ug/ml measured within 2 hrs by ELISA. Format: cell-based. In general terms: ELISA stands for enzyme-linked immunosorbent assay.
The target is the same in series [3]. Put plainly: Agonist activity at TLR-4 in C57BL/6 mouse peritoneal exudate macrophages assessed as increase in TNF-alpha production at 1 to 5 ug/ml measured within 2 hrs by ELISA.
Series [4] shares this target. In words: Binding affinity to TLR-4 in C57BL/6 mouse peritoneal exudate macrophages assessed as cells binding to PE conjugated anti-TLR-4 monoclonal antibody at 5 ug/ml preincubated for 4 hrs followed by antibody addition by flow cytometry (reference value: 50.8%). For orientation: In flow cytometry, cells or beads pass a laser one at a time.
Series [5] shares this target. In words: Binding affinity to TLR-4 in C57BL/6 mouse peritoneal exudate macrophages assessed as cells binding to PE conjugated anti-TLR-4 monoclonal antibody at 1 ug/ml preincubated for 4 hrs followed by antibody addition by flow cytometry (reference value: 50.8%).
Series [6] shares this target. Put plainly: Agonist activity at TLR-4 in C57BL/6 mouse peritoneal exudate macrophages assessed as increase in IL-6 production at 1 to 5 ug/ml measured after 48 hrs by ELISA.
Series [7] shares this target. In words: Agonist activity at TLR4 in TLR-2 deficient C57BL/6 mouse peritoneal exudate macrophages assessed as induction of IL-6 production at 1 to 5 ug/ml measured after up to 48 hrs by ELISA.
For series [8] the target is unchanged. Put plainly: Binding affinity to TLR-4 in C57BL/6 mouse peritoneal exudate macrophages assessed as cells binding to PE conjugated anti-TLR-4 monoclonal antibody at 10 ug/ml preincubated for 4 hrs followed by antibody addition by flow cytometry (reference value: 50.8%).
For series [9] the target is unchanged. Put plainly: Agonist activity at TLR-4 in mouse RAW264.7 cells assessed as increase in IL-6 production at 1 to 5 ug/ml measured after 48 hrs by ELISA. Type of series: cell-based.
The target is the same in series [10]. Put plainly: Agonist activity at TLR-4 in TLR2 deficient C57BL/6 mouse peritoneal exudate macrophages assessed as increase in TNF-alpha production at 1 to 5 ug/ml measured after 2 to 24 hrs by ELISA.
Series [11] has the same target. Put plainly: Binding affinity to TLR-4 in C57BL/6 mouse peritoneal exudate macrophages assessed as decrease in cells binding to PE conjugated anti-TLR-4 monoclonal antibody preincubated for 4 hrs followed by antibody addition by flow cytometry.
Series [12] in a line: Effect on adaptive immune system in mouse splenocytes assessed as polyclonal activation of T-lymphocytes. Format: cell-based. To be noted: splenocyte.
The target of series [13] is Toll-like receptor 2 (Mus musculus) (UniProt Q9QUN7). Put plainly: Binding affinity to TLR-2 in C57BL/6 mouse peritoneal exudate macrophages assessed as cells binding to PE conjugated anti-TLR-2 monoclonal antibody at 10 ug/ml preincubated for 4 hrs followed by antibody addition by flow cytometry (reference value: 30.8%).
A short description of series [14]: Effect on adaptive immune system in mouse splenocytes assessed as polyclonal activation of B-lymphocytes. Format: cell-based. To be noted: splenocyte.
Series [15] deals with T1, Toll-like receptor 4 (Mus musculus). Put plainly: Agonist activity at TLR-4 in C57BL/6 mouse peritoneal exudate macrophages assessed as increase in TNF-alpha production at 1 to 5 ug/ml up to 24 hrs post dose by ELISA relative to thiophenyl-2-O-acetyl-3-O-benzoyl-4,6-O-pyruvate-[…]-D-galactopyranose.

Activity calls are given as the source filed them. The rule behind the calls is not given here.

Chain of Toll-like receptor 2 (Mus musculus) (Q9QUN7 whole entry): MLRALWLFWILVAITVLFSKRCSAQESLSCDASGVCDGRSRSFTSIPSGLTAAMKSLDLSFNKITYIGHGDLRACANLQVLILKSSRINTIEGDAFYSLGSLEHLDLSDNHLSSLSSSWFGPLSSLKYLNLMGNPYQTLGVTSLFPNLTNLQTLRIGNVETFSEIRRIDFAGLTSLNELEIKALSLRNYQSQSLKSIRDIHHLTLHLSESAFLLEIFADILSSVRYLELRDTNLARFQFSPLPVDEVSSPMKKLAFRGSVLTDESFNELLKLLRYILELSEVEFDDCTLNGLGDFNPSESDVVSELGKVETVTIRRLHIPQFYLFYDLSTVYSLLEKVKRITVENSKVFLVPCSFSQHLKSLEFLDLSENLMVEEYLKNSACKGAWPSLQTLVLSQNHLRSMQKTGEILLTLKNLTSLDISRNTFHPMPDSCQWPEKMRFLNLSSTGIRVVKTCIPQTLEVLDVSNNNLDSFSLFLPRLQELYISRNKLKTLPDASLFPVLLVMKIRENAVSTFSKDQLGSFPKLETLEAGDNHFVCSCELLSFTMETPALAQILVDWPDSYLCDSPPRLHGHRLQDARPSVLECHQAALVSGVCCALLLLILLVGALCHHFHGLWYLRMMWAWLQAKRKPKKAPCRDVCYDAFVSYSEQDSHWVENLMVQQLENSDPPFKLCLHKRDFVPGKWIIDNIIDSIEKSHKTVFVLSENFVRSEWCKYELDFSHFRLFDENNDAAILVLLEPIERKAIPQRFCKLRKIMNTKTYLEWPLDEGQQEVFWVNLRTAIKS

Regarding `CCS[C@@H]1O[C@H](COC(C)=O)[C@@H](OC(C)=O)[C@H](OC(C)=O)[C@H]1N1C(=O)c2ccccc2C1=O`, the Activity in [1] is 50%.
For the compound `COC(=O)C1(C)OC[C@H]2O[C@@H](OC3CCC(O[C@@H]4O[C@H](COC(C)=O)[C@@H](OC(C)=O)[C@H](OC(C)=O)[C@H]4N4C(=O)c5ccccc5C4=O)CC3)[C@H](OC(C)=O)[C@@H](OC(=O)c3ccccc3)[C@H]2O1` (stereo partly specified), the result in [2], in series [3], in series [6], in [7], in series [9] and in [10] was Active. Further, the Activity was 37.3% in series [4]; 45.2% in [5]; 24.3% in series [8]; “Dose-dependent effect” in series [11]; “Non-Toxic” in [12]; 33.4% in [13]. Moreover, the Activity entry is “Non-Toxic” in [14] and 50% in [15].
For `COC(=O)C1(C)OC[C@H]2O[C@@H](Sc3ccccc3)[C@H](OC(C)=O)[C@@H](OC(=O)c3ccccc3)[C@H]2O1` (stereo partly specified), the Activity in [1] is 50%.
